Source: patent publication US6451828B1, “Selective inhibition of glutaminase by bis-thiadiazoles” (priority 2000, dated 2002)

Legend:
[1] = target: T1, glutaminase activity in rat brain membranes (Rattus norvegicus, UniProt P13264); experiment: Inhibition of glutaminase activity in rat brain membranes; type: biochemical; conditions: PO4 conc. = 8 mM; FIG. 2
T1 construct: from tissue; host or cells: rat brain membranes
T1 sequence (P13264 55-674): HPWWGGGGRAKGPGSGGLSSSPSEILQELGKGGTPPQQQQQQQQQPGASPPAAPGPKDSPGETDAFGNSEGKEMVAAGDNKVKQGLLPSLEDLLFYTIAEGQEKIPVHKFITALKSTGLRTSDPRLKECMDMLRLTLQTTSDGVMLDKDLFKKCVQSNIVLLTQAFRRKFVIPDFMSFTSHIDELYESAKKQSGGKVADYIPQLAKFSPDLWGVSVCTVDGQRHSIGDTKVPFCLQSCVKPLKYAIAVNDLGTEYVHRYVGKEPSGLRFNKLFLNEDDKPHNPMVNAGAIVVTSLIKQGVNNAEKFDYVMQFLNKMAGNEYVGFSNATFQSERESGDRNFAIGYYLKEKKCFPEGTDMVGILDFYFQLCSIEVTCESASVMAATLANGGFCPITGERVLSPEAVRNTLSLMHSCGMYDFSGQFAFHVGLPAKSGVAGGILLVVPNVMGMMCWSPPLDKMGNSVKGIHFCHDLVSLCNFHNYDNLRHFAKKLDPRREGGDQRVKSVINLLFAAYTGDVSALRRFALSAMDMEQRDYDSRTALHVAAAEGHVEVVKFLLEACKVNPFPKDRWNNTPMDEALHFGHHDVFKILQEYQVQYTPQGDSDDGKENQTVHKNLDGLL
Experimental: Aliquots of 10 μL were removed at 0, 85, and 195 min, added to 90 μL 1:3 DMF/H2O, and analyzed for glutamate by HPLC following derivatization with o-phthaldialdehyde and 2-mercaptoethanol (see Lo et al. 1998).

[2] = tested on: astrocytes; experiment: Intracellular amino acids in primary cultures of astrocytes; type: cell-based
Experimental: (§1) To produce dose response curves for lowering of intracellular Glu and Asp (FIG. 6A-B), the procedure was repeated with 4 days (for cerebellar granule cells) and 12 days of incubation (for astrocytes). […] Results are shown in FIGS. 6A-B. Data are expressed as the ratio of Glu, Asp, or GABA to Ala (neurons and astrocytes) or Ser (astrocytes).

[3] = tested on: intestinal epithelial (CACO2) cells; experiment: Intracellular nucleotides in intestinal epithelial cells; type: cell-based; conditions: at 10 μM, FIG. 5B
Experimental: The remaining volume of the extracts was used for chromatographic determination of nucleic acids, as described in Di Pierro et al. This assay reflects the activity of a variety of glutamine amidotransferases, including CTP synthetase, which are mechanistically and functionally related to glutaminase.
CTP synthetase is a glutamine amidotransferase which synthesizes CTP by adding the amide nitrogen of glutamine to UTP.
Intestinal epithelial (CACO2) cells were grown in 12 well plates with Eagles minimal essential medium containing 2 mM glutamine, as recommended (American Tissue Culture Collection). When the cells reached about 80% confluency, fresh glutamine was added to 2 mM. […] After 6.5 h of incubation, cultures were washed twice with phosphate buffered saline and extracted with 100 μL 1M perchloric acid. Extracts were neutralized with 30 μL of 5M potassium carbonate, centrifuged, and analyzed by HPLC for nucleotides, as described in Di Pierro et al. 1995, and for amino acids, as described in Lo et al. 1998. Results are shown in FIG. 5A (amino acids) and FIG. 5B (nucleotides).

[4] = tested on: cerebellar granule cells; experiment: Intracellular amino acids in primary cultures of cerebellar granule cells; type: cell-based
Experimental: as §1, with “After 5 h incubation, the cultures were washed twice with phosphate buffered saline, extracted with perchloric acid and analyzed for amino acids as described for FIG. 5A. To” for “To”

O=C(Cc1ccccc1)Nc1nnc(CCSCCc2nnc(NC(=O)Cc3ccccc3)s2)s1 [SNX-1770, bis-2′-[5-(phenylacetamido)-1,3,4-thiadiazol-2-yl]ethyl sulfide]
Inhibition of glutaminase activity in rat brain membranes [1]: inhibition of glutaminase activity
IC50 ([2]; Astrocyte, primary cultures of astrocytes, read-out: IC50, lowering of cellular glutamate): 100 to 300 nM
Lowering of cellular glutamate ([2]; astrocytes, partial and specific): ~30%
Effect on intracellular (non-glutamate) amino acids, including serine, glycine, arginine, alanine, taurine ([2]; at 10 μM, astrocytes): no effect
Effect on intracellular nucleotides [3]: no effect
Effect on intracellular (non-glutamate) amino acids, including serine, glycine, arginine, alanine, taurine ([4]; at 10 μM, cultured cerebellar neurons): no effect
Lowering of cellular glutamate ([4]; granule cell neurons, partial and specific): ~30%
Effect on cellular GABA ([4]; granule cells, levels up to 10 μM, FIG. 6C): no effect
IC50 ([4]; primary cultures of cerebellar granule cells, read-out: IC50, lowering of cellular glutamate): 50 to 100 nM
